Two compounds from PMC12537922 (Nature Communications, 2025) can be followed below.

One assay addresses T1, PiAA7D (Phytophthora infestans, UniProt D0N574).
T1 construct: gene PITG_06591
Conditions: co-substrate O2; 25 mM MES pH 6, 20 °C, 1 nM enzyme; sigmoidal (allosteric) model.

Another assay addresses T2, PiAA7A (Phytophthora infestans, UniProt D0MXI7).
T2 construct: gene PITG_02928
Conditions: co-substrate O2; 25 mM MES pH 6, 20 °C, 1 nM enzyme; sigmoidal (allosteric) model.

T2 sequence (D0MXI7 27-509 limits assumed): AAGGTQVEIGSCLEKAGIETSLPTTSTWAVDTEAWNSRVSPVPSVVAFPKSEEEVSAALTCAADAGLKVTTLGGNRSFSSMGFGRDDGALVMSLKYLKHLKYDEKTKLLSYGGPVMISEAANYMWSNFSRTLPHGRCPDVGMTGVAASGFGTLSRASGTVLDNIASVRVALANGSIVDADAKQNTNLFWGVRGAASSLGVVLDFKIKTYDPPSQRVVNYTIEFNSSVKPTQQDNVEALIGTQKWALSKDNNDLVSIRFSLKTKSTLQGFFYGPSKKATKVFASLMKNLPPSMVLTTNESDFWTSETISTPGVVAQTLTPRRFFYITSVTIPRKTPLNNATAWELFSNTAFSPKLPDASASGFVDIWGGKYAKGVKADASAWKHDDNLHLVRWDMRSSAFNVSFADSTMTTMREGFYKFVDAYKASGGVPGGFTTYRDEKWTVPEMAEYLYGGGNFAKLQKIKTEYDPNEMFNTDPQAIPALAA
T1 sequence (D0N574 27-508 limits assumed): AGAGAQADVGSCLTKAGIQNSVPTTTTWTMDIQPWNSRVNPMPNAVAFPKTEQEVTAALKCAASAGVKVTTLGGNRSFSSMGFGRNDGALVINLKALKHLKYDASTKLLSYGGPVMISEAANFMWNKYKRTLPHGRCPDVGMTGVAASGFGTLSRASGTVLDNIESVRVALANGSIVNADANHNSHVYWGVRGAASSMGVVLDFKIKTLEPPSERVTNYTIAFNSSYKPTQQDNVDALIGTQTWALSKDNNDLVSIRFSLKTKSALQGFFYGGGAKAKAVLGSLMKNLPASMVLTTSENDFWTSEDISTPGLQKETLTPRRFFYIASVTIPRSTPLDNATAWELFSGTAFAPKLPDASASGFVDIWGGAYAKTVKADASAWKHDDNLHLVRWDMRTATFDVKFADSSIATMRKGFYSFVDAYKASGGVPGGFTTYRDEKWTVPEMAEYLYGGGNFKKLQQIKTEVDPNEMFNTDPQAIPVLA

For the compound `O=C(O)[C@H]1O[C@H](O[C@@H]2[C@H](O)[C@@H](O)[C@@H](O[C@@H]3[C@H](O)[C@@H](O)[C@@H](O[C@@H]4[C@H](O)[C@@H](O)C(O)O[C@@H]4C(=O)O)O[C@@H]3C(=O)O)O[C@@H]2C(=O)O)[C@H](O)[C@@H](O)[C@H]1O` (some centres unmarked) [OG4], the KM entry on PiAA7D is listed as “PiAA7D with OG4”.

Regarding `O=C(O)[C@H]1O[C@H](O[C@@H]2[C@H](O)[C@@H](O)[C@@H](O[C@@H]3[C@H](O)[C@@H](O)C(O)O[C@@H]3C(=O)O)O[C@@H]2C(=O)O)[C@H](O)[C@@H](O)[C@H]1O` (some centres unmarked) [OG3], the KM entry at PiAA7A is “a sigmoidal (allosteric) model was found to be more appropriate for PiAA7A with OG3”.
